This note sets out measurements from patent publication US20240016772A1, “Compositions And Methods Comprising D-Cysteine Or A D-Derivative Thereof” (UNIVERSITE DE GENEVE, priority 2020, published 2024).

“Also recorded” adds a separate entry of the source. Peptide text beside a SMILES is read from it. * marks the point of attachment. Cbz = O=C(OCc1ccccc1)*; CH2F = FC*

Assay [1] deals with A549 cells. Kind of assay: Proliferation of A549 cells (cell counts after 72 h / 3 days). The conditions noted are these: 500 μM added to culture medium, cells counted after 3 days (72 h). It counts as cell-based, human. How it is done:
FIG. 1. Effect of L- and D-Cysteine, each tested at 500 microM, on the proliferation of A549 cells. Cells were counted 3 days after addition of L- or D-Cysteine. (CM=culture medium)
(§1) A549 lung tumor cells (FIG. 5A) or BEAS-2B normal bronchial epithelial cells (FIG. 5B) were cultured in complete media (CM) in the absence or presence of 500 μM D-cysteine (D-Cys). Cell numbers were analyzed after 72 h and after splitting of cells (p1). Cell numbers are expressed as % of cells cultured in the absence of D-cysteine. **** P<0.0001.
(§2) We therefore decided to test whether the D-cysteine-mediated inhibition of OCR could affect cell growth in a regular normal medium complemented with fetal calf serum. Most culture media used for cell culture contain 300 μM L-cystine. […] Importantly, some cancer cell lines, including HeLa cells (FIG. 4A), the MPM cell line H2052/484 (FIG. 4B), and osteosarcoma cell line 143B (not shown), were insensitive both in 2D cultures or in colony formation assays. The decrease in numbers of cells seen after 72 h exposure to D-cysteine was due to decreased cell proliferation. […] Importantly, in contrast to the results with cancer cells, normal human bronchial epithelial BEAS-2B cells were resistant to D-cysteine exposure even at very high concentration (FIG. 5B).

Assay [2] concerns MDA-MB-231 breast cancer cells. Kind of assay: Proliferation of MDA-MB-231 cells with D-cysteine and 3-MST inhibitor HMPSNE. It counts as cell-based. The conditions noted are these: D-cysteine 100 μM and/or HMPSNE. The procedure: (§3) A549 lung tumor cells (FIG. 10A) or MDA-MB-231 breast tumor cells (FIG. 10B) were cultured in complete media (CM) in the absence or presence of 100 μM D-cysteine (D-Cys), with (grey bars) or without (black bars) HMPSNE, a cell-membrane permeable inhibitor of 3-MST. Cell numbers were counted after 72 hours. * P<0.05, ** P<0.01, *** P<0.001, **** P<0.0001.
(§4) Furthermore, as mentioned above, it exerts toxic effects via iron chelation. Therefore, to survive D cysteine, cells need to increase its catabolism. There are two main pathways for cysteine catabolism: one is via its enzymatic breakdown to produce hydrogen sulfur and organic intermediates that will serve as carbon sources, and the second is via oxidative metabolism through cysteine dioxygenase 48. Inhibition of cysteine catabolism can be obtained with inhibitors of the key enzymes participating in this pathway. We have used a commercially available inhibitor of 3-MST, HMPSNE 49 to inhibit the enzyme in A549 lung cancer cells and in MDA-MB-231 breast cancer cells in the presence or absence of D cysteine.

Assay [3] relates to A549 lung cancer cells. The experiment in a line: Proliferation of A549 cells with D-cysteine and 3-MST inhibitor HMPSNE. It counts as cell-based, human. The conditions noted are these: D-cysteine 100 μM and/or HMPSNE. How it is done: as §3, §4
Assay [4] has as its system mitochondrial respiration. Kind of assay: Oxygen consumption rate of cells in poor medium with single amino acids. It counts as cell-based. The conditions noted are these: cells in poor medium containing only glucose, each amino acid tested separately; data not shown.
Assay [5] concerns A549 cells. The experiment in a line: Cell death of A549 cells exposed to D-cysteine (passage p1, caspase 3 Western blotting, zVAD-fmk, CRISPR screen selection). It counts as cell-based, human. The conditions noted are these: added to D-cysteine-exposed cells; data not shown. The procedure: as §1, §2
For these experiments a pooled lentiviral CRISPR library (Addgene) targeting 19114 human genes was used to infect A549 cells, stably expressing the Cas9 nuclease. Cells were then cultured in the presence of 0.5 mM D-cysteine, a concentration sufficient to induce A549 cell death. After 2-3 weeks, the surviving clones were recovered and the sgRNAs were amplified by PCR and sequenced using next-generation sequencing (NGS) to identify the targeted genes (FIG. 6).
(In western blotting, separated proteins are transferred to a membrane and probed.)

On to `N[C@H](CSSC[C@@H](N)C(=O)O)C(=O)O` [D-cystine], for which the “proliferation of A549 cells” value in assay [1] is “inhibited the proliferation”.

Turning to `Cc1cc(=O)[nH]c(SCC(=O)c2cccc3ccccc23)n1` [HMPSNE], the “cell proliferation (cell numbers after 72 hours), MDA-MB-231” value in assay [2] is reported as “significant impact; also recorded: potentiates the anti-proliferative effect of D-cysteine”. In addition, in assay [3], the “cell proliferation (cell numbers after 72 hours), A549” value was “significant impact; also recorded: potentiates the anti-proliferative effect of D-cysteine”.

As for `N[C@@H](CS)C(=O)O` [L-cysteine, reference compound], the “inhibitory effect on oxygen consumption rate (OCR)” value in assay [4] is listed as “responsible for the observed effect”. Moreover, the entries for the “proliferation of A549 cells” value in assay [1] and in assay [1] (listed as L form of cysteine) were “had no effect” and “no adverse effect”, respectively. On to `COC(=O)C[C@H](NC(=O)[C@H](C)NC(=O)[C@@H](NC(=O)OCc1ccccc1)C(C)C)C(=O)CF` [zVAD-fmk, reference compound] (Cbz-Val-Ala-Asp(OMe)-CH2F), for which the “protection from D-cysteine-induced cell death by added pan-caspase inhibitor” value in assay [5] is reported as “did not protect the cells”.
